Data taken from PubChem BioAssay (NCI).
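Dose response: 5 concentrations. Exposure: 48 h. Format: 96-well plates. Endpoint: linear interpolation; highest concentration if not reached. TGI: concentration producing complete growth inhibition.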

Key:
Assay in all cases: DTP human tumour cell line panel, 48 h
HT29 colon = test system: HT29 colon
HCC-2998 colon = test system: HCC-2998 colon
COLO 205 colon = test system: COLO 205 colon
OVCAR-5 ovarian = test system: OVCAR-5 ovarian
DU-145 prostate = test system: DU-145 prostate
RXF 393 renal = test system: RXF 393 renal
SN12C renal = test system: SN12C renal
TK-10 renal = test system: TK-10 renal
786-0 renal = test system: 786-0 renal
SR leukemia = test system: SR leukemia
BT-549 breast = test system: BT-549 breast
MALME-3M melanoma = test system: MALME-3M melanoma
CCRF-CEM leukemia = test system: CCRF-CEM leukemia
PC-3 prostate = test system: PC-3 prostate
ACHN renal = test system: ACHN renal
HCT-15 colon = test system: HCT-15 colon
OVCAR-8 ovarian = test system: OVCAR-8 ovarian
NCI-H226 lung = test system: NCI-H226 lung
IGROV1 ovarian = test system: IGROV1 ovarian
HCT-116 colon = test system: HCT-116 colon
A498 renal = test system: A498 renal
UACC-257 melanoma = test system: UACC-257 melanoma
EKVX NSCLC = test system: EKVX NSCLC
SK-MEL-5 melanoma = test system: SK-MEL-5 melanoma
HOP-92 NSCLC = test system: HOP-92 NSCLC
SF-295 CNS = test system: SF-295 CNS
MOLT-4 leukemia = test system: MOLT-4 leukemia
SK-MEL-28 melanoma = test system: SK-MEL-28 melanoma
OVCAR-3 ovarian = test system: OVCAR-3 ovarian
SF-539 CNS = test system: SF-539 CNS
UO-31 renal = test system: UO-31 renal
LOX IMVI melanoma = test system: LOX IMVI melanoma
NCI-H23 lung = test system: NCI-H23 lung
SNB-19 CNS = test system: SNB-19 CNS
SW-620 colon = test system: SW-620 colon
HOP-62 NSCLC = test system: HOP-62 NSCLC
K-562 leukemia = test system: K-562 leukemia
MCF7 breast = test system: MCF7 breast
SNB-75 CNS = test system: SNB-75 CNS
NCI-H460 lung = test system: NCI-H460 lung
M14 melanoma = test system: M14 melanoma
A549 NSCLC = test system: A549 NSCLC
KM12 colon = test system: KM12 colon
OVCAR-4 ovarian = test system: OVCAR-4 ovarian
MDA-MB-435 = test system: MDA-MB-435
SF-268 CNS = test system: SF-268 CNS
UACC-62 melanoma = test system: UACC-62 melanoma
HS 578T breast = test system: HS 578T breast
RPMI-8226 leukemia = test system: RPMI-8226 leukemia
NCI/ADR-RES ovarian = test system: NCI/ADR-RES ovarian
NCI-H522 lung = test system: NCI-H522 lung
U251 CNS = test system: U251 CNS
CAKI-1 renal = test system: CAKI-1 renal
MDA-N = test system: MDA-N
MDA-MB-231 breast = test system: MDA-MB-231 breast
SK-MEL-2 melanoma = test system: SK-MEL-2 melanoma
KM20L2 colon = test system: KM20L2 colon
DMS 273 small cell lung = test system: DMS 273 small cell lung
HOP-18 NSCLC = test system: HOP-18 NSCLC
LXFL 529 NSCLC = test system: LXFL 529 NSCLC
HL-60(TB) leukemia = test system: HL-60(TB) leukemia
SNB-78 CNS = test system: SNB-78 CNS
DMS 114 small cell lung = test system: DMS 114 small cell lung
DLD-1 colon = test system: DLD-1 colon
SK-OV-3 ovarian = test system: SK-OV-3 ovarian
T-47D breast = test system: T-47D breast

O=C1c2cc3ncsc3cc2C(=O)c2c(O)ccc(O)c21
TGI (HT29 colon): > 100 µM | TGI (HCC-2998 colon): > 100 µM | TGI (COLO 205 colon): > 100 µM | TGI (OVCAR-5 ovarian): > 100 µM | TGI (DU-145 prostate): > 100 µM | TGI (RXF 393 renal): > 100 µM | TGI (SN12C renal): > 100 µM | TGI (TK-10 renal): > 100 µM | TGI (786-0 renal): > 100 µM | TGI (SR leukemia): > 100 µM | TGI (BT-549 breast): > 100 µM | TGI (MALME-3M melanoma): > 100 µM | TGI (CCRF-CEM leukemia): > 100 µM | TGI (PC-3 prostate): > 100 µM | TGI (ACHN renal): > 100 µM | TGI (HCT-15 colon): > 100 µM | TGI (OVCAR-8 ovarian): > 100 µM | TGI (NCI-H226 lung): > 100 µM | TGI (IGROV1 ovarian): > 100 µM | TGI (HCT-116 colon): > 100 µM | TGI (A498 renal): > 100 µM | TGI (UACC-257 melanoma): > 100 µM | TGI (EKVX NSCLC): > 100 µM | TGI (SK-MEL-5 melanoma): > 100 µM | TGI (HOP-92 NSCLC): > 100 µM | TGI (SF-295 CNS): > 100 µM | TGI (MOLT-4 leukemia): > 100 µM | TGI (SK-MEL-28 melanoma): > 100 µM | TGI (OVCAR-3 ovarian): > 100 µM | TGI (SF-539 CNS): > 100 µM | TGI (UO-31 renal): > 100 µM | TGI (LOX IMVI melanoma): > 100 µM | TGI (NCI-H23 lung): > 100 µM | TGI (SNB-19 CNS): > 100 µM | TGI (SW-620 colon): > 100 µM | TGI (HOP-62 NSCLC): > 100 µM | TGI (K-562 leukemia): > 100 µM | TGI (MCF7 breast): > 100 µM | TGI (SNB-75 CNS): > 100 µM | TGI (NCI-H460 lung): > 100 µM | TGI (M14 melanoma): > 100 µM | TGI (A549 NSCLC): > 100 µM | TGI (KM12 colon): > 100 µM | TGI (OVCAR-4 ovarian): > 100 µM | TGI (MDA-MB-435): > 100 µM | TGI (SF-268 CNS): > 100 µM | TGI (UACC-62 melanoma): > 100 µM | TGI (HS 578T breast): > 100 µM | TGI (RPMI-8226 leukemia): > 100 µM | TGI (NCI/ADR-RES ovarian): > 100 µM | TGI (NCI-H522 lung): > 100 µM | TGI (U251 CNS): > 100 µM | TGI (CAKI-1 renal): > 100 µM | TGI (MDA-N): > 100 µM | TGI (MDA-MB-231 breast): > 100 µM | TGI (SK-MEL-2 melanoma): > 100 µM

COc1cc([C@@H]2c3cc4c(cc3[C@@H](NCc3cccc(F)c3)C3COC(=O)[C@@H]32)OCO4)cc(OC)c1O (stereo partly drawn)
TGI (HT29 colon): 29.5 µM | TGI (HCC-2998 colon): 20.9 µM | TGI (COLO 205 colon): > 65 µM | TGI (OVCAR-5 ovarian): 51.3 µM | TGI (KM20L2 colon): 21.2 µM | TGI (RXF 393 renal): 45.3 µM | TGI (SN12C renal): 12.8 µM | TGI (TK-10 renal): 40.9 µM | TGI (DMS 273 small cell lung): 14.3 µM | TGI (HOP-18 NSCLC): > 65 µM | TGI (786-0 renal): 10.2 µM | TGI (MALME-3M melanoma): 21.5 µM | TGI (CCRF-CEM leukemia): 18.1 µM | TGI (ACHN renal): 4.61 µM | TGI (HCT-15 colon): 20.5 µM | TGI (OVCAR-8 ovarian): 25.3 µM | TGI (NCI-H226 lung): 6.55 µM | TGI (IGROV1 ovarian): 17.5 µM | TGI (HCT-116 colon): 20.1 µM | TGI (A498 renal): 13.1 µM | TGI (UACC-257 melanoma): 39.6 µM | TGI (EKVX NSCLC): 38 µM | TGI (SK-MEL-5 melanoma): 17.9 µM | TGI (HOP-92 NSCLC): > 65 µM | TGI (LXFL 529 NSCLC): > 65 µM | TGI (SF-295 CNS): > 65 µM | TGI (MOLT-4 leukemia): 5.59 µM | TGI (SK-MEL-28 melanoma): 45.9 µM | TGI (OVCAR-3 ovarian): 30.5 µM | TGI (HL-60(TB) leukemia): 3.93 µM | TGI (SF-539 CNS): 10.8 µM | TGI (SNB-78 CNS): 57.7 µM | TGI (DMS 114 small cell lung): 31.6 µM | TGI (UO-31 renal): 14.3 µM | TGI (LOX IMVI melanoma): 16.3 µM | TGI (DLD-1 colon): > 65 µM | TGI (NCI-H23 lung): 7.89 µM | TGI (SNB-19 CNS): > 65 µM | TGI (SK-OV-3 ovarian): 35.3 µM | TGI (SW-620 colon): 22.5 µM | TGI (HOP-62 NSCLC): 4.76 µM | TGI (K-562 leukemia): 28.9 µM | TGI (SNB-75 CNS): 13.5 µM | TGI (NCI-H460 lung): 9.23 µM | TGI (M14 melanoma): 40.3 µM | TGI (A549 NSCLC): 10.9 µM | TGI (KM12 colon): 17.4 µM | TGI (OVCAR-4 ovarian): > 65 µM | TGI (SF-268 CNS): > 65 µM | TGI (UACC-62 melanoma): 10.3 µM | TGI (RPMI-8226 leukemia): 19.2 µM | TGI (NCI-H522 lung): 19.4 µM | TGI (U251 CNS): 7.11 µM | TGI (CAKI-1 renal): 51.4 µM | TGI (SK-MEL-2 melanoma): 29.5 µM

CC(C)(C)OC(=O)NNCC(O)COc1ccccc1 (stereo not drawn)
TGI (HT29 colon): > 100 µM | TGI (HCC-2998 colon): > 100 µM | TGI (COLO 205 colon): > 100 µM | TGI (OVCAR-5 ovarian): > 100 µM | TGI (DU-145 prostate): > 100 µM | TGI (RXF 393 renal): > 100 µM | TGI (SN12C renal): > 100 µM | TGI (TK-10 renal): > 100 µM | TGI (786-0 renal): > 100 µM | TGI (SR leukemia): > 100 µM | TGI (BT-549 breast): > 100 µM | TGI (MALME-3M melanoma): > 100 µM | TGI (CCRF-CEM leukemia): > 100 µM | TGI (PC-3 prostate): > 100 µM | TGI (ACHN renal): > 100 µM | TGI (HCT-15 colon): > 100 µM | TGI (OVCAR-8 ovarian): > 100 µM | TGI (NCI-H226 lung): > 100 µM | TGI (IGROV1 ovarian): > 100 µM | TGI (HCT-116 colon): > 100 µM | TGI (A498 renal): > 100 µM | TGI (UACC-257 melanoma): > 100 µM | TGI (EKVX NSCLC): > 100 µM | TGI (SK-MEL-5 melanoma): > 100 µM | TGI (HOP-92 NSCLC): > 100 µM | TGI (SF-295 CNS): > 100 µM | TGI (MOLT-4 leukemia): > 100 µM | TGI (SK-MEL-28 melanoma): > 100 µM | TGI (OVCAR-3 ovarian): > 100 µM | TGI (HL-60(TB) leukemia): > 100 µM | TGI (SF-539 CNS): > 100 µM | TGI (T-47D breast): > 100 µM | TGI (UO-31 renal): > 100 µM | TGI (LOX IMVI melanoma): > 100 µM | TGI (NCI-H23 lung): > 100 µM | TGI (SNB-19 CNS): > 100 µM | TGI (SK-OV-3 ovarian): > 100 µM | TGI (SW-620 colon): > 100 µM | TGI (HOP-62 NSCLC): > 100 µM | TGI (K-562 leukemia): > 100 µM | TGI (MCF7 breast): > 100 µM | TGI (NCI-H460 lung): > 100 µM | TGI (M14 melanoma): > 100 µM | TGI (A549 NSCLC): > 100 µM | TGI (OVCAR-4 ovarian): > 100 µM | TGI (MDA-MB-435): > 100 µM | TGI (SF-268 CNS): > 100 µM | TGI (UACC-62 melanoma): > 100 µM | TGI (HS 578T breast): > 100 µM | TGI (RPMI-8226 leukemia): > 100 µM | TGI (NCI/ADR-RES ovarian): > 100 µM | TGI (NCI-H522 lung): > 100 µM | TGI (U251 CNS): > 100 µM | TGI (CAKI-1 renal): > 100 µM | TGI (MDA-N): > 100 µM | TGI (MDA-MB-231 breast): > 100 µM | TGI (SK-MEL-2 melanoma): > 100 µM
